The results in this text go back to BindingDB's records for doi:10.1016/j.bmcl.2010.11.050 (The University of Tokushima Graduate School, 2010).

The target in the test is Carbonic anhydrase 2 (Bos taurus, UniProt P00921). Nature of the test: Binding affinity to bovine carbonic anhydrase 2.
Sequence of Carbonic anhydrase 2 (P00921 whole entry): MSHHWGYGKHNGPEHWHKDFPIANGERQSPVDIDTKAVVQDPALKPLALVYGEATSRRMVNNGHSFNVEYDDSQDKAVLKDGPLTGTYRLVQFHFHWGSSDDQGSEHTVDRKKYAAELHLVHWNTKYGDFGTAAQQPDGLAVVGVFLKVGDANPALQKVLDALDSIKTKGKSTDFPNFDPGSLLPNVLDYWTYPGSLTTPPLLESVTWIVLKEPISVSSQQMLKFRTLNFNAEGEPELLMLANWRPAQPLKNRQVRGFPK
Take `Cc1ccc(S(N)(=O)=O)cc1`: affinity was put at a Ki of 0.058 µM.
For the compound `NS(=O)(=O)c1ccc([N+](=O)[O-])c(C(F)(F)F)c1`, the Ki (as a rule, the dissociation constant of the complex between target and ligand, obtained from inhibition or displacement) is 0.0017 µM.
In turn, `NS(=O)(=O)c1ccc(Cl)c(Cl)c1` [3,4-Dichloro-Benzenesulfonamide] had an inhibitory constant (Ki) of 0.0025 µM.
In the case of `NS(=O)(=O)c1cccc(Cl)c1` [3-Chloro-Benzenesulfonamide] it was 0.016 µM; in that of `Cc1cccc(S(N)(=O)=O)c1` [3-Methylbenzenesulfonamide], 0.132 µM.
In turn, `NS(=O)(=O)c1cccc([N+](=O)[O-])c1` [3-Nitro-benzenesulfonamide] gave a Ki of 0.0085 µM.
In the case of `CC(=O)c1ccc(S(N)(=O)=O)cc1` [4-Acetyl-Benzenesulfonamide] it was 0.017 µM.
In the case of `NS(=O)(=O)c1ccc(Cl)c([N+](=O)[O-])c1` [4-Chloro-3-nitro-benzenesulfonamide] it was 0.002 µM; in that of `N#Cc1ccc(S(N)(=O)=O)cc1` [4-Cyano-Benzenesulfonamide], 0.0071 µM; in that of `COc1ccc(S(N)(=O)=O)cc1` [4-Methoxy-Benzenesulfonamide], 0.102 µM.
`CNc1ccc(S(N)(=O)=O)cc1` [4-Methylamino-benzenesulfonamide]: the inhibition constant Ki was 0.288 µM.
In the case of `NS(=O)(=O)c1ccc(Cl)cc1` [p-Halide-sulfanilamide derivative, 2] it was 0.014 µM; in that of `NS(=O)(=O)c1ccc(Br)cc1` [p-Halide-sulfanilamide derivative, 2a], 0.014 µM.
